Laboratory results from patent US9993494B2, “Compositions and methods for treating fibrotic disease” (eFFECTOR Therapeutics, Inc., priority 2014, dated 2018).

System: normal human lung fibroblasts
Test: Ribosomal profiling: translational efficiency in TGFβ-treated fibroblasts
Assay type: cell-based
Settings: TGFβ-treated fibroblasts
How it was run: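 Cells lysed on ice after a cold PBS wash containing cycloheximide. Ribosome-protected fragments and total mRNA were prepared with the ARTseq kit and sequenced by RNA-Seq. Reads were trimmed, mapped to the human genome and counted uniquely over coding regions per gene, with low-count genes excluded before differential translational-efficiency analysis.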

## Cc1ccc(=O)n(-c2ccccc2)c1 [pirfenidone, 5-methyl-1-phenylpyridin-2-one]
Gene RPS6KA5 (ENSG00000100784)
  effect in renormalizing the translational profile of the gene: − (− = <0.9)
Gene RPS7 (ENSG00000171863)
  effect in renormalizing the translational profile of the gene: − (− = <0.9)
Gene RPS8 (ENSG00000142937)
  effect in renormalizing the translational profile of the gene: + (+ = 0.9 to 1.5)
Gene RPS9 (ENSG00000170889)
  effect in renormalizing the translational profile of the gene: + (+ = 0.9 to 1.5)
Gene RPS10 (ENSG00000124614)
  effect in renormalizing the translational profile of the gene: + (+ = 0.9 to 1.5)
Gene RPS11 (ENSG00000142534)
  effect in renormalizing the translational profile of the gene: − (− = <0.9)
Gene RPS12 (ENSG00000112306)
  effect in renormalizing the translational profile of the gene: − (− = <0.9)
Gene RPS13 (ENSG00000110700)
  effect in renormalizing the translational profile of the gene: − (− = <0.9)
Gene RPS14 (ENSG00000164587)
  effect in renormalizing the translational profile of the gene: − (− = <0.9)
Gene RPS15 (ENSG00000115268)
  effect in renormalizing the translational profile of the gene: + (+ = 0.9 to 1.5)
Gene RPS15A (ENSG00000134419)
  effect in renormalizing the translational profile of the gene: + (+ = 0.9 to 1.5)
Gene RPS16 (ENSG00000105193)
  effect in renormalizing the translational profile of the gene: + (+ = 0.9 to 1.5)
Gene RPS18 (ENSG00000231500)
  effect in renormalizing the translational profile of the gene: + (+ = 0.9 to 1.5)
Gene RPS19 (ENSG00000105372)
  effect in renormalizing the translational profile of the gene: + (+ = 0.9 to 1.5)
Gene RPS20 (ENSG00000008988)
  effect in renormalizing the translational profile of the gene: − (− = <0.9)
Gene RPS21 (ENSG00000171858)
  effect in renormalizing the translational profile of the gene: − (− = <0.9)
Gene RPS23 (ENSG00000186468)
  effect in renormalizing the translational profile of the gene: − (− = <0.9)
Gene RPS24 (ENSG00000138326)
  effect in renormalizing the translational profile of the gene: − (− = <0.9)
Gene RPS25 (ENSG00000118181)
  effect in renormalizing the translational profile of the gene: − (− = <0.9)
Gene RPS26 (ENSG00000197728)
  effect in renormalizing the translational profile of the gene: − (− = <0.9)
Gene RPS27 (ENSG00000177954)
  effect in renormalizing the translational profile of the gene: + (+ = 0.9 to 1.5)
Gene RPS27A (ENSG00000143947)
  effect in renormalizing the translational profile of the gene: − (− = <0.9)
Gene RPS28 (ENSG00000233927)
  effect in renormalizing the translational profile of the gene: + (+ = 0.9 to 1.5)
Gene RPS29 (ENSG00000213741)
  effect in renormalizing the translational profile of the gene: + (+ = 0.9 to 1.5)
Gene RPSA (ENSG00000168028)
  effect in renormalizing the translational profile of the gene: − (− = <0.9)
Gene RTN2 (ENSG00000125744)
  effect in renormalizing the translational profile of the gene: − (− = <0.9)
Gene SEMA3A (ENSG00000075213)
  effect in renormalizing the translational profile of the gene: − (− = <0.9)
Gene SGIP1 (ENSG00000118473)
  effect in renormalizing the translational profile of the gene: − (− = <0.9)
Gene SH3BGR (ENSG00000185437)
  effect in renormalizing the translational profile of the gene: − (− = <0.9)
Gene SHC3 (ENSG00000148082)
  effect in renormalizing the translational profile of the gene: − (− = <0.9)
Gene SLC2A12 (ENSG00000146411)
  effect in renormalizing the translational profile of the gene: − (− = <0.9)
Gene SLC7A7 (ENSG00000155465)
  effect in renormalizing the translational profile of the gene: − (− = <0.9)
Gene SLC15A3 (ENSG00000110446)
  effect in renormalizing the translational profile of the gene: − (− = <0.9)
Gene SLC25A6 (ENSG00000169100)
  effect in renormalizing the translational profile of the gene: + (+ = 0.9 to 1.5)
Gene SLC40A1 (ENSG00000138449)
  effect in renormalizing the translational profile of the gene: ++ (++ = 1.5 to 2.0)
Gene SMO (ENSG00000128602)
  effect in renormalizing the translational profile of the gene: − (− = <0.9)
Gene SNRPA (ENSG00000077312)
  effect in renormalizing the translational profile of the gene: − (− = <0.9)
Gene SOX5 (ENSG00000134532)
  effect in renormalizing the translational profile of the gene: − (− = <0.9)
Gene SOX6 (ENSG00000110693)
  effect in renormalizing the translational profile of the gene: + (+ = 0.9 to 1.5)
Gene SPATA6 (ENSG00000132122)
  effect in renormalizing the translational profile of the gene: + (+ = 0.9 to 1.5)
Gene STAMBPL1 (ENSG00000138134)
  effect in renormalizing the translational profile of the gene: + (+ = 0.9 to 1.5)
Gene STS (ENSG00000101846)
  effect in renormalizing the translational profile of the gene: + (+ = 0.9 to 1.5)
Gene SYNE2 (ENSG00000054654)
  effect in renormalizing the translational profile of the gene: − (− = <0.9)
Gene TAF1D (ENSG00000166012)
  effect in renormalizing the translational profile of the gene: + (+ = 0.9 to 1.5)
Gene TDG (ENSG00000139372)
  effect in renormalizing the translational profile of the gene: − (− = <0.9)
Gene TEN1 (ENSG00000257949)
  effect in renormalizing the translational profile of the gene: − (− = <0.9)
Gene TET2 (ENSG00000168769)
  effect in renormalizing the translational profile of the gene: − (− = <0.9)
Gene TET3 (ENSG00000187605)
  effect in renormalizing the translational profile of the gene: − (− = <0.9)
Gene TGFBI (ENSG00000120708)
  effect in renormalizing the translational profile of the gene: − (− = <0.9)
Gene THBS3 (ENSG00000169231)
  effect in renormalizing the translational profile of the gene: + (+ = 0.9 to 1.5)
Gene THG1L (ENSG00000113272)
  effect in renormalizing the translational profile of the gene: − (− = <0.9)
Gene TIMM9 (ENSG00000100575)
  effect in renormalizing the translational profile of the gene: − (− = <0.9)
Gene TKT (ENSG00000163931)
  effect in renormalizing the translational profile of the gene: + (+ = 0.9 to 1.5)
Gene TMTC1 (ENSG00000133687)
  effect in renormalizing the translational profile of the gene: − (− = <0.9)
Gene TOMM7 (ENSG00000196683)
  effect in renormalizing the translational profile of the gene: − (− = <0.9)
Gene TOP2A (ENSG00000131747)
  effect in renormalizing the translational profile of the gene: − (− = <0.9)
Gene TPGS1 (ENSG00000141933)
  effect in renormalizing the translational profile of the gene: − (− = <0.9)
Gene TPM2 (ENSG00000198467)
  effect in renormalizing the translational profile of the gene: − (− = <0.9)
Gene TPT1 (ENSG00000133112)
  effect in renormalizing the translational profile of the gene: − (− = <0.9)
Gene TRERF1 (ENSG00000124496)
  effect in renormalizing the translational profile of the gene: − (− = <0.9)
Gene UBA52 (ENSG00000221983)
  effect in renormalizing the translational profile of the gene: − (− = <0.9)
Gene UQCRB (ENSG00000156467)
  effect in renormalizing the translational profile of the gene: − (− = <0.9)
Gene UTRN (ENSG00000152818)
  effect in renormalizing the translational profile of the gene: − (− = <0.9)
Gene VIM (ENSG00000026025)
  effect in renormalizing the translational profile of the gene: − (− = <0.9)
Gene ZNF581 (ENSG00000171425)
  effect in renormalizing the translational profile of the gene: − (− = <0.9)
Gene ZNF608 (ENSG00000168916)
  effect in renormalizing the translational profile of the gene: − (− = <0.9)
